Measurements taken from patent publication EP2955179A1, “CONDENSED HETEROCYCLIC COMPOUND” (Sumitomo Chemical Company Limited, priority 2013, dated 2014).

Key:
Assay type in all cases: in vivo
Nilaparvata lugens = assay: Test Example 4: drench at foot of rice seedling, Nilaparvata lugens larvae released; details: Nilaparvata lugens, soil, 144 h; active ingredient 500 ppm, 5 ml drench at foot of rice seedling, 7 days at 25°C, then third-fourth instar larvae kept 6 days; read-out: control value
Blattella germanica = assay: whole plant or invertebrate; details: 144 h, read-out: death rate
Procedure: The formulations of Compounds of Present Invention 1-11, 1-19 and 1-23 as obtained in Formulation Example 5 were diluted with water, so as to have a concentration of the active ingredient of 500 ppm, to prepare a test drug solution.
A filter paper having a diameter of 5.5 cm was spread on the bottom of a polyethylene cup having the same diameter and 0.7 ml of the test drug solution was added dropwise onto the filter paper, and 30 mg of sucrose was uniformly placed as bait. Into the polyethylene cup, 2 male imagoes of Blattella germanica were released, and the cup was sealed with a lid. After 6 days, the life and death of Blattella germanica was examined, the number of dead insects was counted, and the death rate was calculated according to the following equation. Death rate (%) = (Number of dead insects/Number of tested insects) × 100 [formula]

Plutella xylostella = assay: Test Example 6: spray on cabbage, Plutella xylostella larvae released; details: 120 h, active ingredient 500 ppm, 20 mL/cup sprayed on cabbage, second instar larvae, 25°C for 5 days, read-out: death rate
Procedure: On the other hand, on cabbage at the third leaf stage planted in a polyethylene cup was sprayed, at a rate 20 mL/cup, the test drug solution. After the drug solution was dried, the foliage part was cut off, and then placed in a 50 mL volume cup. Five second instar larvae of Plutella xylostella were released into the cup, and the cup was sealed with a lid. After the cup was kept at 25°C for 5 days, the number of dead insects was counted. The death rate was calculated according to the following equation. Death rate (%) = (Number of dead insects/Number of tested insects) × 100 [formula]

Culex pipiens pallens = assay: Test Example 10: Culex pipiens pallens larvae in treated water; details: 24 h, active ingredient concentration 3.5 ppm in ion-exchanged water, last-instar larvae, one day later, read-out: death rate
Description: 20 last-instar larvae of Culex pipiens pallens were released into the solution. One day later, the life and death of the Culex pipiens pallens was examined, and the number of dead insects was counted to calculate the death rate. Death rate (%) = (Number of dead insects/Number of tested insects) × 100 [formula]

Aphis gossypii [1] = assay: Test Example 1: foliar spray on cucumber seedling inoculated with Aphis gossypii; details: 144 h, active ingredient 500 ppm, 20 ml sprayed on cucumber seedling, six days after spraying, read-out: control value
Procedure: On the other hand, on a cucumber seedling (the first true leaf stage) planted in a plastic cup was inoculated with about 30 Aphis gossypii (whole stage), and left for a day. 20 ml of the test drug solution was sprayed on the seedling. Six days after spraying, the number of surviving Aphis gossypii parasitic on the leaves of the cucumber was examined, and the control value was calculated according to the following equation: Control value (%) = {1-(Cb×Tai)/(Cai×Tb)} × 100 [formula] wherein the symbols represent as follows: • Cb: the number of insects in a non-treated section before treatment • Cai: the number of surviving parasitic insects in a non-treated section on observation • Tb: the number of insects in a treated section before treatment • Tai: the number of surviving parasitic insects in a treated section on observation • wherein the non-treated section refers to a section where the test drug solution prepared by diluting the formulation obtained as in Formulation Example 5 but not containing the compound of the present invention with the same amount of water as in the treated section was sprayed.

Aphis gossypii [2] = assay: Test Example 2: drench at foot of cucumber seedling, later inoculated with Aphis gossypii; details: soil, 144 h, active ingredient 500 ppm, 5 ml drench at foot of cucumber seedling, 7 days at 25°C, then inoculated and kept 6 days, read-out: control value
Procedure: On the other hand, a cucumber seedling (the second true leaf stage) planted in a plastic cup was drenched at its foot with 5 ml of the test drug solution, and kept in a greenhouse at 25°C for 7 days. On the cucumber leaf surface was inoculated about 30 Aphis gossypii (whole stage), and further kept in the greenhouse for 6 days, then the number of surviving Aphis gossypii parasitic on the leaves of the cucumber was examined, and the control value was calculated according to the following equation: Control value (%) = {1-(Cb×Tai)/(Cai×Tb)} × 100 [formula] wherein the symbols represent as follows: • Cb: the number of insects in a non-treated section before treatment • Cai: the number of surviving parasitic insects in a non-treated section on observation • Tb: the number of insects in a treated section before treatment • Tai: the number of surviving parasitic insects in a treated section on observation • wherein the non-treated section refers to a section where the test drug solution prepared by diluting the formulation obtained as in Formulation Example 5 but not containing the compound of the present invention with the same amount of water as in the treated section was sprayed.

Row | Compound | mortality at 500 ppm (Nilaparvata lugens) [%] | mortality at 500 ppm (Blattella germanica) [%] | mortality at 500 ppm (Plutella xylostella) [%] | mortality at 3.5 ppm (Culex pipiens pallens) [%] | mortality at 500 ppm (Aphis gossypii [1]) [%] | mortality at 500 ppm (Aphis gossypii [2]) [%]
1 | CCN(CC)C(=O)c1cnc(-c2nc3cc(C(F)(F)F)cnc3n2C)c(S(=O)(=O)CC)c1 [Compound of Present Invention 1-11, N,N-diethyl-5-ethylsulfonyl-6-(3-methyl-6-trifluoromethyl-3 H-imidazo[4,5-b]pyridin-2-yl)nicotinamide] | ≥ 90 | 100 | ≥ 80 | ≥ 95 |  | 
2 | CCS(=O)(=O)c1cc(C(=O)NC)cnc1-c1nc2cc(C(F)(F)F)cnc2n1C [Compound of Present Invention 1-19] | ≥ 90 | 100 |  | ≥ 95 | ≥ 90 | ≥ 90
